# Test results reported in ChEMBL document CHEMBL1201862, “PubChem BioAssay data set” (2004).
# Calls of active or inactive are those of the source.
# Legend:
# [1] = Luminescence Cell-Based Dose Retest to Confirm Inhibitors of Cancer Stem Cells. [Related pubchem assays (depositor defined):AID2717, AID2721]; assay type: functional; details: Homo sapiens
# [2] = viability loss of HMLE_sh_eGFP cells – cell-based, luminescence, counter-screen for HMLE_sh_ECad selective toxicity project, dose response (AID 463074); assay type: functional, Homo sapiens;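 note: HMLE human mammary epithelial cells expressing control shRNA against eGFP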
# HEK293 [3] = test: cells; details: Homo sapiens
# HEK293 [4] = test: cells; details: Homo sapiens; remark: listed apart in the source
# [5] = HEK-293T cell viability reduction – luminescence, B-cell screen hits, cytotoxicity control for BCR NF-kB inhibitor project, dose response (AID 489021); assay type: functional, cell-based;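 note: HEK-293T cells carrying an NF-kB luciferase reporter; cells exposed to compound for about 14 hours before viability readout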
# HEK293 [6] = test: SAR Analysis of small molecule inhibitors of B-cell specific antigen receptor-induced NF-kB activation in a HEK-293T cell line using a luminescence assay - Set 2. [Related pubchem assays (depositor defined):AID435022, AID435025, AID489021]; assay type: functional, cell-based; details: Homo sapiens
# Jurkat [7] = test: SAR Analysis of small molecule inhibitors of […] specific antigen receptor-induced NF-kB activation in a Jurkat cell line using a luminescence assay - Set 3. [Related pubchem assays (depositor defined):AID435022, AID435025, AID465]; assay type: functional, cell-based; details: Homo sapiens
# HEK293 [8] = test: HEK293T cell viability loss, resazurin readout – resazurin fluorescence, cytotoxicity control for NF-kB activator project, SAR follow-up (AID 493251); assay type: functional, cell-based; details: Homo sapiens, HEK293
# [9] = NIH3T3 cell viability loss – ATP luminescence, mouse fibroblasts, counter-screen, dose response (AID 2010); assay type: functional, cell-based;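 note: cells exposed to compound for about 90 hours before reading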
# Beta-galactosidase = Beta-galactosidase (Escherichia coli, UniProt Q8VNN2); test: detection-enzyme interference by beta-gal modulators – biochemical, E. coli enzyme, set 3, artefact control for CCR6 antagonist project, dose response (AID 504712); assay type: functional
# Beta-galactosidase, sequence (Q8VNN2 whole entry): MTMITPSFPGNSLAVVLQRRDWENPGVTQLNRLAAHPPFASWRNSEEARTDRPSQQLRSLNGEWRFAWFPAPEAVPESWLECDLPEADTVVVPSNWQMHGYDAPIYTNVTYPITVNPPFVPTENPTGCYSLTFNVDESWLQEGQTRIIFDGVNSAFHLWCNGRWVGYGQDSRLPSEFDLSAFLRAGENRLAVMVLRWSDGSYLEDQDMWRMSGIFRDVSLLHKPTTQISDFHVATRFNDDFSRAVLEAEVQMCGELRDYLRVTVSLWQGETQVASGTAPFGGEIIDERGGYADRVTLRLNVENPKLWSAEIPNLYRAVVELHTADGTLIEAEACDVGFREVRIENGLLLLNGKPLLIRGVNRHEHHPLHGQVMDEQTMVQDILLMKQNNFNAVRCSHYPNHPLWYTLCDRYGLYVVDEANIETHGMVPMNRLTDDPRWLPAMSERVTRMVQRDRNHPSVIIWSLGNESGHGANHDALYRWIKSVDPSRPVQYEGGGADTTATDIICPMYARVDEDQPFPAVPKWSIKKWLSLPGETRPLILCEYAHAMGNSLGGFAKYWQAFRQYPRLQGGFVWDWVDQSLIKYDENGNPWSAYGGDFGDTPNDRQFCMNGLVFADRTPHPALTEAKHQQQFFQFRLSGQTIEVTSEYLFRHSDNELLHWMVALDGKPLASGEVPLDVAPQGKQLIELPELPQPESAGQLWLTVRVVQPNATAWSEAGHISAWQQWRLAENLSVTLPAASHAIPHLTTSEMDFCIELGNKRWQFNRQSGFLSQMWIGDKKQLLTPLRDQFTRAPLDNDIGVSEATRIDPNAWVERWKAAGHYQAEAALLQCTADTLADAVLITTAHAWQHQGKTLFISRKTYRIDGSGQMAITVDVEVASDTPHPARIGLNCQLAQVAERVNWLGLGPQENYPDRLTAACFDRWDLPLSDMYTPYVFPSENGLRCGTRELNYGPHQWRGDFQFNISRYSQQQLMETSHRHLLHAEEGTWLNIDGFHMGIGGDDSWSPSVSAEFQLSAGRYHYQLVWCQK
# [10] = Trypanosoma cruzi growth suppression in host cells – NIH3T3 host cells, beta-gal luminescence, confirmation (AID 2044); assay type: functional, cell-based;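 note: intracellular parasites grown in NIH/3T3 mouse fibroblasts as host cells; luminescent beta-galactosidase reporter signal from transgenic T. cruzi replicating inside host cells; inhibitors lower the luminescence signal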
# Apelin receptor = Apelin receptor (Homo sapiens, UniProt P35414); test: apelin receptor antagonists, arrestin read-out – cell-based, luminescent, enzyme-fragment complementation, selectivity assay for CCR6 antagonist project, SAR follow-up (AID 588359); assay type: functional
# [11] = target: Intestinal-type alkaline phosphatase (Mus musculus, UniProt P24822); test: PubChem AID 488785; assay type: functional
# Intestinal-type alkaline phosphatase (Mus musculus, UniProt P24822), sequence (P24822 whole entry): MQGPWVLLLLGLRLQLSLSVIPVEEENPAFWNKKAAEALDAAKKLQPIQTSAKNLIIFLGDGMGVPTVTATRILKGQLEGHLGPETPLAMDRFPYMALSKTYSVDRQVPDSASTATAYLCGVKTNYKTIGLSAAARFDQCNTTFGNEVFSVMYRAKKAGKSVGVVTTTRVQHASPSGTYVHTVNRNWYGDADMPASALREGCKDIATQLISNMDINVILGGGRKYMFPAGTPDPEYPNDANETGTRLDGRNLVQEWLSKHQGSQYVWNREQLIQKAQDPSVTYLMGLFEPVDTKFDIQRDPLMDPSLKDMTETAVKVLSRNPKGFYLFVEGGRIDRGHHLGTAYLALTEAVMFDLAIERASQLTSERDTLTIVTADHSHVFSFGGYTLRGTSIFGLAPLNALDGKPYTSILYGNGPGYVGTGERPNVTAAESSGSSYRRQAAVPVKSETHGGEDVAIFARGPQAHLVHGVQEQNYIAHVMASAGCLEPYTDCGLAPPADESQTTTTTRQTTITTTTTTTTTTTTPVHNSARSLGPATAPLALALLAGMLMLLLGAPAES
# [12] = target: T1, Alkaline phosphatase, tissue-nonspecific isozyme (Homo sapiens, UniProt P05186); test: TNAP enzyme inhibition by screening hits, dose response, selectivity assay for mouse IAP inhibitor project, biochemical, human TNAP, uHTS hits (AID 488906); assay type: functional
# T1 sequence (P05186 whole entry): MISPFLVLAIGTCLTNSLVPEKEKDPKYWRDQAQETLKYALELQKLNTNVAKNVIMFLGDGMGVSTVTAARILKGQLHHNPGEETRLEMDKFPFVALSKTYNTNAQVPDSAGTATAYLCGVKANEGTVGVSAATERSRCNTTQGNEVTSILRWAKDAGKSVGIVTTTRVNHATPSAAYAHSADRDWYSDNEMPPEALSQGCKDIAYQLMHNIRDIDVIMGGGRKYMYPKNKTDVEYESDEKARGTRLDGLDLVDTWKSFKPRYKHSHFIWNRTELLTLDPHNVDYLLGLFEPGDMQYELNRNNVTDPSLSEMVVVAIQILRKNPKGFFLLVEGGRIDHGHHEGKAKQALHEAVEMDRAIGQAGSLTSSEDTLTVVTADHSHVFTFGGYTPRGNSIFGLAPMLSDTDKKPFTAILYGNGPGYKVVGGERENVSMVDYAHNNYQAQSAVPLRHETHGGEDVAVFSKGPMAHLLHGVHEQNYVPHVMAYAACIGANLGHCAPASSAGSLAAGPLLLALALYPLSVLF
# [13] = target: T2, Calpain-2 catalytic subunit (Sus scrofa, UniProt P43367); test: m-calpain protease blockers, concentration series – biochemical, fluorogenic peptide substrate, dose response (AID 1420); assay type: functional
# T2 sequence (P43367 whole entry): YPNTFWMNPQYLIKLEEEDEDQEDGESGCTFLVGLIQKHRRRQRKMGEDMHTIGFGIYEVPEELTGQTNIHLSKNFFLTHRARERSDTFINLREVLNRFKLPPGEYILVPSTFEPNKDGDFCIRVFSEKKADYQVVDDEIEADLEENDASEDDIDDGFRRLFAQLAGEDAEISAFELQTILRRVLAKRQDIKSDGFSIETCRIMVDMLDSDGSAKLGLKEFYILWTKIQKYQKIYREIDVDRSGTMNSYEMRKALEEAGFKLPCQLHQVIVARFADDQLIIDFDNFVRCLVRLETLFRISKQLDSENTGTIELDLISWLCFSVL
# [14] = target: Intestinal-type alkaline phosphatase (Homo sapiens, UniProt P09923); test: inhibition of human intestinal alkaline phosphatase – biochemical, dose response (AID 488876); assay type: functional
# Cysteine protease ATG4B = target: T3, Cysteine protease ATG4B (Homo sapiens, UniProt Q9Y4P1); assay type: functional;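 note: Fluorescence-based dose-response confirmation assay measuring inhibition of ATG4B activity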
# T3 sequence (Q9Y4P1 whole entry): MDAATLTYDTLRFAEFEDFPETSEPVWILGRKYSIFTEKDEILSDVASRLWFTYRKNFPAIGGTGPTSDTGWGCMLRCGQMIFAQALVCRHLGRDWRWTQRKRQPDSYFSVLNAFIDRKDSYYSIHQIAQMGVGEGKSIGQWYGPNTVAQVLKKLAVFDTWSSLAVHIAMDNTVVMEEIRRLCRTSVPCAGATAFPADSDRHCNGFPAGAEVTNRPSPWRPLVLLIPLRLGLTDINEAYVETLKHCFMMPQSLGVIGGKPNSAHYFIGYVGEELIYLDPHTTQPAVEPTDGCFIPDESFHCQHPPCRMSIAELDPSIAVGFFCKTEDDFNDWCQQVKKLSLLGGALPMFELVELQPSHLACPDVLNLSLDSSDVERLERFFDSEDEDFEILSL
# Phospholipase A2 = Phospholipase A2 (Homo sapiens, UniProt P04054); assay type: functional;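 note: confirmatory dose-response counterscreen on phospholipase A2, testing hits that came from an ultra-high-throughput screen for ATG4B inhibitors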
# Phospholipase A2, sequence (P04054 whole entry): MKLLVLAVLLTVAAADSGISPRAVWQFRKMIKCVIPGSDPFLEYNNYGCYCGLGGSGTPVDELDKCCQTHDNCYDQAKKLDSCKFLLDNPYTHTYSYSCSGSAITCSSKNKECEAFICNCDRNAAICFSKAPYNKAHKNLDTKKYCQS
# [15] = target: T4, Microphthalmia-associated transcription factor (Homo sapiens, UniProt O75030); test: reducers of TRPM1 reporter luminescence, concentration series – cell-based, SK-MEL-5, cherry-picked, set 3, MITF inhibitor project, dose response (AID 493073); assay type: functional;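 note: SK-MEL-5 melanoma cells with luciferase driven by the MITF target TRPM1 promoter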
# T4 sequence (O75030 whole entry): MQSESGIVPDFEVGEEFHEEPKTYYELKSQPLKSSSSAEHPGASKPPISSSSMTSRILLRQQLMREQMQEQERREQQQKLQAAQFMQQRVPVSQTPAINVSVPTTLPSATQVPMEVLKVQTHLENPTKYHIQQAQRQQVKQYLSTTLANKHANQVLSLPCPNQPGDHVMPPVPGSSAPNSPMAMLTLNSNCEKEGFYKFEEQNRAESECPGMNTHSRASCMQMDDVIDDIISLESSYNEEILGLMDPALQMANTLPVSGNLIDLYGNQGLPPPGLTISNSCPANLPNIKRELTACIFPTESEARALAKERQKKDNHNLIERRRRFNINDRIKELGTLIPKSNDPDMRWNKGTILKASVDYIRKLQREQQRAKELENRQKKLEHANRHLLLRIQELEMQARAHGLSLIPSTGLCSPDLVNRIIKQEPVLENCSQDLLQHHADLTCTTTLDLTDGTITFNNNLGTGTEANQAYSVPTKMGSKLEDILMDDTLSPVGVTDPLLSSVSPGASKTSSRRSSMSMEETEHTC
# Troponin, cardiac muscle = Troponin, cardiac muscle (Homo sapiens, UniProt P19429+P45379+P63316); test: Fluorescence-based biochemical high throughput dose response assay for activators of the calcium sensitivity of cardiac Regulated Thin Filaments (RTF). [Related pubchem assays (depositor defined):AID493008, AID493018, AID504382, AID504383]; assay type: protein-complex assay
# A-375 [16] = test: MITF: Counter assay: A375 proliferation Measured in Cell-Based System Using Plate Reader - 2084-03_Inhibitor_Dose_DryPowder_Activity. [Related pubchem assays (depositor defined):AID488944]; assay type: functional; details: Homo sapiens
# A-375 [17] = test: proliferation inhibition in MITF-low A375 cells – cell-based, cherry-pick samples, set 2, counter-screen for MITF modulator project, dose response (AID 540335); assay type: functional; details: Homo sapiens
# [18] = target: Voltage-dependent T-type calcium channel subunit alpha-1H (Homo sapiens, UniProt O95180); test: inhibition of CACNA1H calcium flux – cell-based, SynthLib3 library, HEK293 Cav3.2, fluorescence (AID 493041); assay type: functional
# Voltage-dependent T-type calcium channel subunit alpha-1H, sequence (O95180 whole entry): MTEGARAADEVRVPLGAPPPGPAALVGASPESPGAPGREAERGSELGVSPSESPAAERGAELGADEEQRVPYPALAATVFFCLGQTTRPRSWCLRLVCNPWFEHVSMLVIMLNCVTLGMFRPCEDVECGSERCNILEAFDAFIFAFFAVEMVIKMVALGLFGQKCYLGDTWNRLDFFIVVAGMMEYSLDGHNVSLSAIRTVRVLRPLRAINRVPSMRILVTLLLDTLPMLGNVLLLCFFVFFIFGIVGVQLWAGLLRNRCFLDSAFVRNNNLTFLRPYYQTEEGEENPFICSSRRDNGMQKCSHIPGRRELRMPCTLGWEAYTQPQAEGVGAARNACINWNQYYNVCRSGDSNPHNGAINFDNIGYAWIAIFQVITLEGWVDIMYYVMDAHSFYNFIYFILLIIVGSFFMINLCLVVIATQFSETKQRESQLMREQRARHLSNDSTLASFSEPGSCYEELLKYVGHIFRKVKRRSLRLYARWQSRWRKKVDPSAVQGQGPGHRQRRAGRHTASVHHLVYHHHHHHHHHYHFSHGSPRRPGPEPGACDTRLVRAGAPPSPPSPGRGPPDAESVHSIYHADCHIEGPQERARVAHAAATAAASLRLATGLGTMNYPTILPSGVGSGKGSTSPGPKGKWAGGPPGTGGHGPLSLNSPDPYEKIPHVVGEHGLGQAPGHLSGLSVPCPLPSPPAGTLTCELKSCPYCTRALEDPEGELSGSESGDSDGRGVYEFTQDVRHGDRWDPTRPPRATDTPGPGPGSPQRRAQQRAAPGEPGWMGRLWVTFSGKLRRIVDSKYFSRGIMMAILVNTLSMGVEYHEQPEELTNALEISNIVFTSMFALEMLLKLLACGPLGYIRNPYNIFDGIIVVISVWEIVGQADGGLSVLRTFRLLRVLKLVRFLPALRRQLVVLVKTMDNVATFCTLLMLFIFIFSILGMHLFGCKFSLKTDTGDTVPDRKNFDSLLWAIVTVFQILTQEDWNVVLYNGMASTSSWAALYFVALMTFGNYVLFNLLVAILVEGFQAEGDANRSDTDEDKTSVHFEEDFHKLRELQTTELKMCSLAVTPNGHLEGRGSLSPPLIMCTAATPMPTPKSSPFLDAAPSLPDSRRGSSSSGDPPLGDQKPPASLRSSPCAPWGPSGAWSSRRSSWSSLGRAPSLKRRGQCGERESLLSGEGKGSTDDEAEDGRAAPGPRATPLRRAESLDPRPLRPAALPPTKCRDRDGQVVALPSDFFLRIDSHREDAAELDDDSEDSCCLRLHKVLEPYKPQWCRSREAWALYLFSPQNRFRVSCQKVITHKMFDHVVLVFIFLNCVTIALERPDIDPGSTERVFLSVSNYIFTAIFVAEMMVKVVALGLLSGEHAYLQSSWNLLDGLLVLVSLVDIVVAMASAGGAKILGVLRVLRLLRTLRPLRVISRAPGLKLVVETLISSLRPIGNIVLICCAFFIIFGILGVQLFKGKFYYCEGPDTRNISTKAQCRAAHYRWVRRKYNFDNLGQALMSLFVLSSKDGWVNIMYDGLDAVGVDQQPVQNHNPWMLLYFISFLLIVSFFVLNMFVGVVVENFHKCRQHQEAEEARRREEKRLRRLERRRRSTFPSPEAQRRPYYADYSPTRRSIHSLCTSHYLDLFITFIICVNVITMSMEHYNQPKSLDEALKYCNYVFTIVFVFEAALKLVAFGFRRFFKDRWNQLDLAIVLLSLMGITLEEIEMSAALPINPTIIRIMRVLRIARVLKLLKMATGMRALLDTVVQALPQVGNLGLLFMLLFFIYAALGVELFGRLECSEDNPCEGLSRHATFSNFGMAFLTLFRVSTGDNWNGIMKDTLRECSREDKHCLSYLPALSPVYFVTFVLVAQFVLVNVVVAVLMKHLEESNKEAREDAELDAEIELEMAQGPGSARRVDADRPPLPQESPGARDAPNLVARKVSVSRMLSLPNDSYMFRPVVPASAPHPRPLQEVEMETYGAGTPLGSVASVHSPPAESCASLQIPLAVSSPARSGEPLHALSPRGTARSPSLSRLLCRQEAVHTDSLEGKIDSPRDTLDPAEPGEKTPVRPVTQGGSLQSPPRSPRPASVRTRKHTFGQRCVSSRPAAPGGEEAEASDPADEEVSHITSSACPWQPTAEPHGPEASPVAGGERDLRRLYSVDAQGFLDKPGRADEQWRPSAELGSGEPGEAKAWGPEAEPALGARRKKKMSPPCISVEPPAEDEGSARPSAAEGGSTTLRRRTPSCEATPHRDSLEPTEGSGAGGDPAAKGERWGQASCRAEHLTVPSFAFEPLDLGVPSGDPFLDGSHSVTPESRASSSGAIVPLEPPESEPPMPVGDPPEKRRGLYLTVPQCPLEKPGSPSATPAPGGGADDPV
# Jurkat [19] = test: blockers of NF-kB activation in T cells – Jurkat, luciferase reporter, luminescence, B- and T-cell, dose response (AID 489004); assay type: functional, cell-based; details: Homo sapiens;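 note: NF-kB luciferase reporter Jurkat cells stimulated with PMA plus ionomycin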
# [20] = HEK-293T viability loss, compound-treated – cell-based, uHTS hits, cytotoxicity control for B/T-cell NF-kB inhibitor project, dose response (AID 489019); assay type: functional;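 note: IC50 reflects cytotoxicity as loss of cell viability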
# [21] = target: Potassium voltage-gated channel subfamily KQT member 2 (Rattus norvegicus, UniProt O88943); test: rat KCNQ2 current potentiators – automated patch clamp, KCNQ2-CHO cells, SAR follow-up (AID 493113); assay type: functional
# Potassium voltage-gated channel subfamily KQT member 2, sequence (O88943 whole entry): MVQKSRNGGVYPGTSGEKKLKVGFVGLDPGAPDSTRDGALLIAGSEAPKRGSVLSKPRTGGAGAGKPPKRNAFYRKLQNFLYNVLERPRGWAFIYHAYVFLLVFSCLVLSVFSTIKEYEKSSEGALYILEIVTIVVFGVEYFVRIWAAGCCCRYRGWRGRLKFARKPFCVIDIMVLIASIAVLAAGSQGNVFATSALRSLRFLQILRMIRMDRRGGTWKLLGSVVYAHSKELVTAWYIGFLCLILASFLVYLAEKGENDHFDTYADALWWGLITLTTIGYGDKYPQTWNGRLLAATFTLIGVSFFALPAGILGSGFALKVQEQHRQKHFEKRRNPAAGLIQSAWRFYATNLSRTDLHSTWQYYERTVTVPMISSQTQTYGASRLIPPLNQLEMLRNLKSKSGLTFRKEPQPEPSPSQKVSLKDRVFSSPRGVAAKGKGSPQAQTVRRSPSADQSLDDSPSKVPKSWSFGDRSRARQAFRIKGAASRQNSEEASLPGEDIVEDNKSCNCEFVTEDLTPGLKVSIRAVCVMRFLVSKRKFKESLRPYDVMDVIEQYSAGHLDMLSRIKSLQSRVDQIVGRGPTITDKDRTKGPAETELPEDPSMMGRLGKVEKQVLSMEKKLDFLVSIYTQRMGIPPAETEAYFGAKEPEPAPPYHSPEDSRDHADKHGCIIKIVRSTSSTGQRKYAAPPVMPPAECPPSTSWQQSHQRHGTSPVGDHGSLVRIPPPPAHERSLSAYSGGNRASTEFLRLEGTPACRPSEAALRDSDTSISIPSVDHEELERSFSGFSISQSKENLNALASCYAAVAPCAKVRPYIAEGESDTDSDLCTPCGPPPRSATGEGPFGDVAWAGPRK
structure (smiles),measurement,setting,value
COc1cc(-c2noc(C)c2C#Cc2ccc(N)cc2)cc(OC)c1OC,AC50,[1],0.219 µM (active)
same,AC50,[2],8 µM (inconclusive)
C=CCO/C(O)=C1\C(C)=NC(SCC(=O)Nc2nccs2)=C(C#N)C1c1ccc(Cl)cc1 (stereo unspecified),EC50,HEK293 [3],> 59.6 µM (inactive)
same,EC50,HEK293 [4],> 59.6 µM (inactive)
CSc1ccc(-c2nc(CSCC(=O)NC3CC3)c(C)o2)cc1,IC50,[5],> 80 µM (inactive)
same,IC50,HEK293 [6],49.7 µM (inactive)
same,IC50,Jurkat [7],> 80 µM (inactive)
same,IC50,HEK293 [8],> 80 µM (inactive)
O=C(CSc1cccc2cccnc12)Nc1ccc(S(=O)(=O)N2CCOCC2)cc1,EC50,[9],7.88 µM (active)
same,IC50,Beta-galactosidase,> 66.6 µM (inactive)
same,EC50,[10],1.58 µM (active)
same,IC50,Apelin receptor,11 µM (active)
O=C(Nc1ccc(Cl)cc1)NC1CCCCC1Cc1ccco1 (stereo unspecified),IC50,[11],12.2 µM (active)
same,IC50,[12],> 100 µM (inactive)
same,IC50,[13],2.69 µM (not active)
same,IC50,[14],> 100 µM (inactive)
Cc1cc(C=C2C(=O)c3ccccc3C2=O)c(C)n1-c1ccccc1,IC50,Cysteine protease ATG4B,11 µM (active)
same,IC50,Phospholipase A2,6.96 µM (active)
same,AC50,[15],3.78 µM (active)
same,EC50,"Troponin, cardiac muscle",> 7.94 µM (active)
same,AC50,A-375 [16],> 11 µM (active)
same,AC50,A-375 [17],> 11 µM (active)
O=C(NC1CCC2CN(CC3CCCC3)CC21)c1cc(Cl)cc(Cl)c1 (stereo unspecified),EC50,[18],6.4 µM (active)
O=C(NCCNCCO)C1(C(F)(F)F)C/C(=C\CCO)CCCO1 (stereo unspecified),IC50,Jurkat [19],> 80 µM (inactive)
same,IC50,[20],> 80 µM (inactive)
Cc1ccc(NC(=O)C2CC3CCC2C3)c(C)c1 (stereo unspecified),EC50,[21],0.22 µM (active)
